Data reported in ChEMBL document CHEMBL4402594, “Interrogating the Lactate Dehydrogenase Tetramerization Site Using (Stapled) Peptides” (J Med Chem, 2020).
Active and inactive are the calls of the source. The rule behind the calls is not given here. Peptide text beside a SMILES is read from it.

Tests used:
[1] = molecular target: T1, L-lactate dehydrogenase B chain (Homo sapiens, UniProt P07195); experiment: Binding affinity to recombinant full length human His-tagged LDH-1 (1 to 322 residues) expressed in Escherichia coli assessed as induction of thermal destabilization at 400 uM by nano differential scanning fluorimetry analysis
Target sequence in this assay (P07195 2-334 limits assumed): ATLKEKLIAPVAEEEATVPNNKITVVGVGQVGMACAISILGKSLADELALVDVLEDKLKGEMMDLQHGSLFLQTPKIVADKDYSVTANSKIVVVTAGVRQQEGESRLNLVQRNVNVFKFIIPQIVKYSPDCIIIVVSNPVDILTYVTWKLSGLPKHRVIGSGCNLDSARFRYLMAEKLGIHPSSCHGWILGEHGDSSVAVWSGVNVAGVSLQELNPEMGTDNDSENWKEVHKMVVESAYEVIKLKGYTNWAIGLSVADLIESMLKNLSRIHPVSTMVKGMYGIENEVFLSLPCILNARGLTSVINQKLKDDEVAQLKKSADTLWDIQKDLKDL

[2] = molecular target: T1, L-lactate dehydrogenase B chain; experiment: Binding affinity to recombinant full length human His-tagged LDH-1 (1 to 322 residues) expressed in Escherichia coli assessed as induction of thermal destabilization by measuring change in melting temperature at 400 uM by nano differential scanning fluorimetry analysis
Target sequence in this assay (P07195 2-334 limits assumed): as above

[3] = molecular target: L-lactate dehydrogenase A chain (Oryctolagus cuniculus) (UniProt P13491); experiment: Binding affinity to rabbit LDH-5 assessed as acid-induced dimerization by measuring fluorescence recovery at 0.75 uM to 400 uM pH 7.6 by nano differential scanning fluorimetry analysis
[4] = molecular target: T2, L-lactate dehydrogenase A chain (Homo sapiens, UniProt P00338); experiment: Binding affinity to truncated human N-terminal His6-tagged LDH-5 expressed in Escherichia coli Rosetta (DE3) assessed as induction of thermal destabilization by measuring melting temperature at 400 uM by nano differential scanning fluorimetry analysis
[5] = molecular target: T2, L-lactate dehydrogenase A chain; experiment: Binding affinity to truncated N-terminal His6-tagged human LDH-5 expressed in Escherichia coli Rosetta (DE3) assessed as induction of protein disruption by interacting with tetramerization site by Red-NHS fluorescence dye based microscale thermophoresis analysis
[6] = molecular target: T2, L-lactate dehydrogenase A chain; experiment: Binding affinity to human N-terminal His6-tagged LDH-5 expressed in Escherichia coli Rosetta (DE3) assessed as induction of thermal destabilization by measuring change in melting temperature at 400 uM by nano differential scanning fluorimetry analysis
[7] = molecular target: T2, L-lactate dehydrogenase A chain; experiment: Binding affinity to human N-terminal His6-tagged human LDH-5 expressed in Escherichia coli Rosetta (DE3) assessed as induction of protein disruption by interacting with tetramerization site by Red-NHS fluorescence dye based microscale thermophoresis analysis
[8] = molecular target: T2, L-lactate dehydrogenase A chain; experiment: Binding affinity to human N-terminal His6-tagged LDH-5 expressed in Escherichia coli Rosetta (DE3) assessed as induction of thermal destabilization by measuring melting temperature at 400 uM by nano differential scanning fluorimetry analysis (reference value: 66 degree C)
[9] = molecular target: T2, L-lactate dehydrogenase A chain; experiment: Binding affinity to human N-terminal His6-tagged LDH-5 expressed in Escherichia coli Rosetta (DE3) assessed as induction of thermal destabilization at 400 uM by nano differential scanning fluorimetry analysis
[10] = molecular target: T1, L-lactate dehydrogenase B chain; experiment: Binding affinity to recombinant full length human His-tagged LDH-1 (1 to 322 residues) expressed in Escherichia coli by WaterLOGSY NMR analysis
Target sequence in this assay (P07195 whole entry, the tested form may be a part): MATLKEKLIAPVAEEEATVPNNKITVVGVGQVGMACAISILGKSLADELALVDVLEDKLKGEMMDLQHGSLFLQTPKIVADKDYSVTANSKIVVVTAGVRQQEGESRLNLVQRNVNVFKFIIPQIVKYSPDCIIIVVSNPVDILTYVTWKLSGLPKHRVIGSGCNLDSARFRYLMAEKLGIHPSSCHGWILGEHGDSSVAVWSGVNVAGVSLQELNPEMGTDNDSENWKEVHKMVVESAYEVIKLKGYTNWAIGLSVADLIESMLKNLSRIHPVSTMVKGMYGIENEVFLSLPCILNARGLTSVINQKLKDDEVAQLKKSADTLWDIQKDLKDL

[11] = molecular target: T1, L-lactate dehydrogenase B chain; experiment: Inhibition of recombinant full length human His-tagged LDH-1 (1 to 322 residues) expressed in Escherichia coli at 800 uM by WaterLOGSY NMR analysis
Target sequence in this assay (P07195 whole entry, the tested form may be a part): as above

[12] = molecular target: T1, L-lactate dehydrogenase B chain; experiment: Binding affinity to full length human N-terminal His6-tagged LDH-H expressed in Escherichia coli Rosetta (DE3) assessed as saturation transfer at N-terminal residues at 800 uM phosphate buffer at pH 7 by 2D NMR-TOCSY analysis
Target sequence in this assay (P07195 2-334 limits assumed): as the sequence (P07195 2-334 limits assumed) above

[13] = molecular target: T1, L-lactate dehydrogenase B chain; experiment: Binding affinity to full length human N-terminal His6-tagged LDH-H expressed in Escherichia coli Rosetta (DE3) assessed as saturation transfer at C-terminal residues at 800 uM phosphate buffer at pH 7 by 2D NMR-TOCSY analysis
Target sequence in this assay (P07195 2-334 limits assumed): as above

[14] = molecular target: T1, L-lactate dehydrogenase B chain; experiment: Binding affinity to full length human N-terminal His6-tagged LDH-H expressed in Escherichia coli Rosetta (DE3) assessed as saturation transfer stemming at 800 uM in sodium phosphate buffer at pH 7.6 by WaterLOGSY NMR analysis
Target sequence in this assay (P07195 2-334 limits assumed): as above

[15] = molecular target: T1, L-lactate dehydrogenase B chain; experiment: Binding affinity to full length human N-terminal His6-tagged LDH-H expressed in Escherichia coli Rosetta (DE3) measured after 5 mins by Red-NHS fluorescent dye based microscale thermophoresis analysis
Target sequence in this assay (P07195 whole entry, the tested form may be a part): as the sequence (P07195 whole entry, the tested form may be a part) above

[16] = molecular target: T1, L-lactate dehydrogenase B chain; experiment: Binding affinity to recombinant full length human His-tagged LDH-1 (1 to 322 residues) expressed in Escherichia coli at 800 uM by WaterLOGSY NMR analysis
Target sequence in this assay (P07195 whole entry, the tested form may be a part): as above

Activity [1]	ΔTm [2]	Activity [3]	Activity [4]	Activity [5]	ΔTm [6]	EC50 [7]	Tm [8]	Activity [9]	Activity [10]	inhibition (INH) [11]	Activity [12]	Activity [13]	Activity [14]	Kd [15]	Activity [16]	Compound
Active	-1.5 °C	Active	inactive	inactive	-5 °C	172 µM	61 °C	Active	–	–	–	–	–	–	–	CC[C@H](C)[C@H](NC(=O)[C@H](CC(C)C)NC(=O)[C@H](CCCCN)NC(=O)[C@@H]1CSc2c(F)c(F)c(c(F)c2F)SC[C@H](N)C(=O)N[C@@H]([C@@H](C)O)C(=O)N[C@@H](CC(C)C)C(=O)N[C@@H](CCCCN)C(=O)N1)C(N)=O (HELM PEPTIDE1{C.T.L.K.C.K.L.I.[am]}|CHEM1{[Fc1c(F)c([*:2])c(F)c(F)c1[*:1]]}$PEPTIDE1,CHEM1,1:R3-1:R1|PEPTIDE1,CHEM1,5:R3-1:R2$$$V2.0)
–	–	–	–	–	–	–	–	–	Not Active	Not Active	Active	Active	Active	1780 µM	Not Active	H-ATLKEKLIAPVAEEEATVP-NH2
